According to US20230357064A1, “ENZYME BOOSTER TECHNOLOGY FOR ADVANCED DECONTAMINATION OF PETROLEUM HYDROCARBONS” (priority 2022, published 2023):
Values after ≈ are worked out from the molar mass of the structure shown.

Assay: Silicone O-ring passive dosing: dissolved concentrations, partitioning, losses and release in MSM
Conditions: for solubility: 15 °C, aqueous buffer
Procedure: It is very important to control the freely dissolved PAH concentration and keep it unchanged throughout the experiment by equilibrium partitioning from the silicone. […] During the loading of PAHs, individual PAHs were dissolved in methanol (loading solvent) to saturation level. To create the PAHs mixture, the concentration in the loading solution was calculated using partitioning coefficients for each PAH from Gilbert et. al. (2015).^39 Then, cleaned and dried O-rings were added to 50 mL volumes of loading solution kept at 15±1° C. A criterion for successful application of the passive dosing system was ensuring the mass of PAHs dissolved into methanol was much greater than that partitioned into the silicon O-ring which in turn was greater than that partitioned into the MSM^37. After 24, 72 and 128 h, O-ring was removed from each loading batch, and they were transferred into MSM to measure O-ring (Crest) and freely dissolved concentration of each PAH (Cfree) at 0.33, 0.66, 1.33, 2.66, 5.33, 12, 24,48, and 72 h. The partition coefficient between different phases (KMethanol:Oring and KOring:MSM) were obtained using the measured Ctest,initial and Cfree, initial. The obtained partitioning coefficient (KOring:MSM) was applied to calculate the required O-ring volume to avoid depletion (<5%) using the following Equation: […]
With a 5 mL MSM and partitioning coefficients from Table 10, the O-ring volume needed for each PAH and PAH mixture were determined. The initial concentrations of freely dissolved PAHs (Cfree initial) and O-ring concentrations (Ctest) in medium samples were calculated via the approach published by Butler et. al (2013).^37 Finally, for the determination of the losses, freely dissolved concentrations of PAHs were directly measured in medium samples to compare with calculated Cfree initial.
Two controls were included to study biodegradation versus dissolved concentrations. The first control contained 5 mL of strain inoculating suspension in passive doing vials with O-rings to account for losses through volatilization. The second control contained 5 mL of MSM without any strain in passive dosing vials in the presence of O-ring loaded with PAHs to account for losses through […].

Compound	solubility	Cfree (dissolved concentration measured in MSM) (MSM)	Cfree initial (freely dissolved concentration) (MSM)	losses through volatilization (control 1, passive dosing vials)	Ctest initial (O-ring concentration) (silicone O-ring)	Cfree (dissolved concentration measured in MSM)	Cfree initial (freely dissolved concentration)	Ctest initial (O-ring concentration)	losses through volatilization	time after which water concentration decreased due to volatility
c1ccc2cc3ccccc3cc2c1 [Anthracene]	3.11 µg/mL (≈ 17.4 µM)	2.66 mg/L	2.98 mg/L	4%	94.1 mg/L					
c1ccc2ccccc2c1 [Naphthalene]	20.5 µg/mL (≈ 160 µM)					17.73 mg/L	18.31 mg/L	97.8 mg/L	19%	about 4 h
c1ccc2c(c1)ccc1ccccc12 [Phenanthrene]	1.04 µg/mL (≈ 5.84 µM)					0.91 mg/L	1.01 mg/L	48.6 mg/L	0%	
